Results on 18 compounds are retold here after ChEMBL document CHEMBL1201862, “PubChem BioAssay data set” (2004).

Active and inactive are the calls of the source.

Among the targets are Cytochrome P450 2D6 (Homo sapiens, UniProt P10635); Cytochrome P450 3A4 (Homo sapiens, UniProt P08684); Cytochrome P450 2C9 (Homo sapiens, UniProt P11712).
Assay [1] is described as follows: viability of PTEN-deleted HCT116 cells – cell-based, HCT116 PTEN knockout, dose response (AID 1047).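 Further: HCT116 colon tumor cells with PTEN knocked out; cells exposed to compound for 60 hours before readout; potency for loss of cell viability measured by luminescence.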 In kind it is functional.
Assay [2] can be described thus: viability of HCT116 lacking mutant beta-catenin – cell-based, human colon tumor, dose response (AID 1045).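 Further: HCT116 colon tumor cells with beta catenin knocked out; cells exposed to compound for 60 hours.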 The format is functional.
The nature of assay [3]: Luminescence Cell-Based Dose Retest to Confirm Inhibitors of Cancer Stem Cells. [Related pubchem assays (depositor defined):AID2717, AID2721]. In kind it is functional. To be noted: Homo sapiens.
The target of another assay is T1, Caspase-3 (Homo sapiens, UniProt P42574).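 Further: Dose-response selectivity test against caspase-3 for candidate inhibitors of sentrin-specific proteases (SENPs).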
T1 sequence (P42574 whole entry): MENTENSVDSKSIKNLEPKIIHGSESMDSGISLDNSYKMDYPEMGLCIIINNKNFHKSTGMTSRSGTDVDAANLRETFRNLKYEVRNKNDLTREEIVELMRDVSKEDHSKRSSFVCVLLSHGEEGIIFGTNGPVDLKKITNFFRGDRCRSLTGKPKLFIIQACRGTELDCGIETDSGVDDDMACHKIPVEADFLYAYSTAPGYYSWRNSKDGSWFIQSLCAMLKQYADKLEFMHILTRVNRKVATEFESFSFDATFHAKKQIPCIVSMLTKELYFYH
In kind it is functional.

Assay [4] can be described thus: HEK-293T viability loss after treatment – luminescence, T-cell screen hits, cytotoxicity control for TCR NF-kB inhibitor project, dose response (AID 489026).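 Further: cells exposed to compound about 14 hours before the viability readout.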 In kind it is functional, cell-based.
In assay [5] the target is T2, Sentrin-specific protease 7 (Homo sapiens, UniProt Q9BQF6).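 Further: Luminescence-based dose-response confirmation of ultra-high-throughput screening hits, measuring inhibition of SENP7.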
T2 sequence (Q9BQF6 whole entry): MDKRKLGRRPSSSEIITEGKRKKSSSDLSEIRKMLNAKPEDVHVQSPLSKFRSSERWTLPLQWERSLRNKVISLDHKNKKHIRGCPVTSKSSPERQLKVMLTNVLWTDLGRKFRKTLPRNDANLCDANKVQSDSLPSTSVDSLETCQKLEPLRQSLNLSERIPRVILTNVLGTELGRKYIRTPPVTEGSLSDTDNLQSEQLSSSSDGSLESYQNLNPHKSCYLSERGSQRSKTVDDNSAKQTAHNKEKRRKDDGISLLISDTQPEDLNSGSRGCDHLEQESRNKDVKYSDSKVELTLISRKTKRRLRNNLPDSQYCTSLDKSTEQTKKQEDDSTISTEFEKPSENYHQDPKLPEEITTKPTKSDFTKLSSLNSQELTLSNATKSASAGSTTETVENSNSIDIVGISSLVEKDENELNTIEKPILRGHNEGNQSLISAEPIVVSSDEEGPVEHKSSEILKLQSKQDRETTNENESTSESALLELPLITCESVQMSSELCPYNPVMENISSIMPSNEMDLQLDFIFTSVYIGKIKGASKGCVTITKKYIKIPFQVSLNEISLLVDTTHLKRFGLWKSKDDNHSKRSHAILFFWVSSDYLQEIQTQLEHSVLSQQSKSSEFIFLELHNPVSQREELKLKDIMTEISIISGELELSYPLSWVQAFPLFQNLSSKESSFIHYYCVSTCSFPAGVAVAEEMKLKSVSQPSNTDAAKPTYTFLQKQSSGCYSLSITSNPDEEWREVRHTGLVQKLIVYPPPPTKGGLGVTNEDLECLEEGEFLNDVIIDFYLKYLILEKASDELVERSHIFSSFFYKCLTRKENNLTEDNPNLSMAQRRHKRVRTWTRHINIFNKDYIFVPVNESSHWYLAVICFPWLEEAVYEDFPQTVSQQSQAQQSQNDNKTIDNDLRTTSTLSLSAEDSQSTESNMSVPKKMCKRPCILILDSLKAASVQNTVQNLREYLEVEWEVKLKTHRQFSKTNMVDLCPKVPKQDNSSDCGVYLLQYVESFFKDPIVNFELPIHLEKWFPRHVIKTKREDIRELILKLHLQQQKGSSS
In kind it is functional.

Assay [6] concerns the target T3, Sentrin-specific protease 6 (Homo sapiens, UniProt Q9GZR1).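 Further: Luminescence-based dose-response confirmatory assay of SENP6 inhibition, following up an ultra-high-throughput screen.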
T3 sequence (Q9GZR1 whole entry): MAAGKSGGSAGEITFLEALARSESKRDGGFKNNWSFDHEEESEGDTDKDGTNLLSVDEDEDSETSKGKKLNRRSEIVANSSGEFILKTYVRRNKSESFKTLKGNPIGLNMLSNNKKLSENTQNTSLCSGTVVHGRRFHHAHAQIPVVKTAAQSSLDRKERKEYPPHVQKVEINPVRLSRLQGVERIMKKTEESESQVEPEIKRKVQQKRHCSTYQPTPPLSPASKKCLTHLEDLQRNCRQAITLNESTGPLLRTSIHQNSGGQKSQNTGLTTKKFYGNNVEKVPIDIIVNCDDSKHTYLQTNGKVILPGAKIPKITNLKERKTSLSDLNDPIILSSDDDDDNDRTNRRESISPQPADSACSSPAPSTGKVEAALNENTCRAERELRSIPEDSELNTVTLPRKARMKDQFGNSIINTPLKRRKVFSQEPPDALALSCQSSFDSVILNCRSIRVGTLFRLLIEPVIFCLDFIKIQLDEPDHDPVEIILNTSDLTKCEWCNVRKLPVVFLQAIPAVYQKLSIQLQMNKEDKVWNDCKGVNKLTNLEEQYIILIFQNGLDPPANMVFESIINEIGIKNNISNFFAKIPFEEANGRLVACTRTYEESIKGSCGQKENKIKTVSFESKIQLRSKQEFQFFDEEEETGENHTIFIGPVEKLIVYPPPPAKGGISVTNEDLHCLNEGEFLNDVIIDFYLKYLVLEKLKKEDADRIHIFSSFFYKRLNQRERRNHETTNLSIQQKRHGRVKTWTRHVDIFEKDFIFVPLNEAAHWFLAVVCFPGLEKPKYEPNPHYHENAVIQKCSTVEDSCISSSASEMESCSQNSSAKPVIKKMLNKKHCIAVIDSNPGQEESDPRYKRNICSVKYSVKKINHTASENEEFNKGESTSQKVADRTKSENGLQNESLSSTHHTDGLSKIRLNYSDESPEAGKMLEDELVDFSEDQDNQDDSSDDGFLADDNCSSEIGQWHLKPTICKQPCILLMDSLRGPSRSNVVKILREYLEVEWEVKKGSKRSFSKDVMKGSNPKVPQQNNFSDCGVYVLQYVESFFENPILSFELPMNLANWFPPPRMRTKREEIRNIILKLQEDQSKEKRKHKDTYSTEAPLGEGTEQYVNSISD
The format is functional.

Assay [7] addresses T4, Sentrin-specific protease 8 (Homo sapiens, UniProt Q96LD8).
T4 sequence (Q96LD8 whole entry): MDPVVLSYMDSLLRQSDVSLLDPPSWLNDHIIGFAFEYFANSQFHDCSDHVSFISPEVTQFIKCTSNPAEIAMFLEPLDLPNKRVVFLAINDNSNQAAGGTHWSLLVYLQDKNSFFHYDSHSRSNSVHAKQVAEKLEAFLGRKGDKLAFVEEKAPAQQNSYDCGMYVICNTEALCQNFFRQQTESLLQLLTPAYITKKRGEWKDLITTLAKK
In kind it is functional.

For assay [8], the target named is Induced myeloid leukemia cell differentiation protein Mcl-1 (Homo sapiens, UniProt Q07820). The format is functional.
Sequence of Induced myeloid leukemia cell differentiation protein Mcl-1 (Q07820 whole entry): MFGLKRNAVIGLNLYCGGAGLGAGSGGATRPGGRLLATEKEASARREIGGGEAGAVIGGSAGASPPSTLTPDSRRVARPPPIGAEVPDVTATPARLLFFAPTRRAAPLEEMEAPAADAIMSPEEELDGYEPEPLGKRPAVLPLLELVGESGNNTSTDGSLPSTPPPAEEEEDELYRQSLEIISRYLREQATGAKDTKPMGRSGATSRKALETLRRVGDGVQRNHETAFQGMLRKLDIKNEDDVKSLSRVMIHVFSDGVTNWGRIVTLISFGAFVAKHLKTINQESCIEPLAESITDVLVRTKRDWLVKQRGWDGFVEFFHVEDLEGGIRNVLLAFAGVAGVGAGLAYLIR
Assay [9] has as its system BJ. Put plainly: BJ-TERT fibroblast viability loss – cell-based, RAS-independent, luminescence, dose response (AID 1933). The format is functional. Particulars: Homo sapiens.
Assay [10] relates to BJ. Description: cells. To be noted: Homo sapiens. In kind it is functional, cell-based.
For assay [11], the system named is BJ. Description: BJ-TERT-LT-ST fibroblast viability loss – cell-based, RAS-independent, luminescence, dose response (AID 1935).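 Further: BJ fibroblasts immortalized with TERT plus LT and ST oncogenes.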 In kind it is functional. Particulars: Homo sapiens.
A short description of assay [12]: DRD fibroblast viability loss – cell-based, non-viral oncogenic, luminescence, dose response (AID 1934). The format is functional. To be noted: Homo sapiens.
For a further assay, the system named is INS1. Description: INS-1E survival protection against cytokine death – cell-based, luminescence, retest, dose response (AID 449756).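 Further: cell death triggered by IL-1 beta plus TNF-alpha plus IFN-gamma mixture; protective hits raise ATP signal compared with cytokine alone wells.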 In kind it is functional. Particulars: Rattus norvegicus.
Assay [13] in a line: Trypanosoma cruzi growth suppression in host cells – NIH3T3 host cells, beta-gal luminescence, confirmation (AID 2044).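 Further: intracellular parasites grown in NIH/3T3 mouse fibroblasts as host cells; luminescent beta-galactosidase reporter signal from transgenic T. cruzi replicating inside host cells; inhibitors lower the luminescence signal.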 In kind it is functional, cell-based.
Assay [14] can be described thus: NIH3T3 cell viability loss – ATP luminescence, mouse fibroblasts, counter-screen, dose response (AID 2010).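 Further: cells exposed to compound for about 90 hours before reading.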 In kind it is functional, cell-based. In general terms: Counterscreens check selectivity or assay interference.
The target in another assay is Nonstructural protein 1 (Influenza A virus, UniProt Q194T2). The format is functional, Influenza A virus (A/California/07/2009(H1N1)).
Sequence of Nonstructural protein 1 (Q194T2 whole entry): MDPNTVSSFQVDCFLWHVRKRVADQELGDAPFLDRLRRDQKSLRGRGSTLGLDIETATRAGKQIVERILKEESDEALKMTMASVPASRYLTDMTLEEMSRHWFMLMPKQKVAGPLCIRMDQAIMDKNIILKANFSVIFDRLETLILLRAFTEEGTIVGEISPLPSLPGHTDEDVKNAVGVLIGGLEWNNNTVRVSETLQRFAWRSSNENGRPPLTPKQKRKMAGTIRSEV
Assay [15] has as its target T5, Fatty acid synthase (Homo sapiens, UniProt P49327). Put plainly: inhibition of human FAS-TE enzyme activity – biochemical, endpoint fluorescence intensity, uHTS hits, dose response (AID 624327).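 Further: fluorescence from hydrolysis of an O-methyl fluorescein acyl ester substrate by the enzyme.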 The format is functional.
For assay [16], the target named is T5, Fatty acid synthase. Description: inhibition of human FAS-TE enzyme activity – biochemical, kinetic fluorescence intensity, dose response (AID 624326).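 Further: rate of fluorescence rise from hydrolysis of a fluorogenic O-methyl fluorescein ester substrate.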 In kind it is functional.

Broadly, the AC50 is the midpoint of the concentration-response curve, whichever way the signal moves. For orientation: EC50 means the concentration at which the effect is half-maximal. Usually IC50 stands for the point on the concentration scale where inhibition reaches its midpoint.

Sequence of Cytochrome P450 2D6 (P10635 whole entry): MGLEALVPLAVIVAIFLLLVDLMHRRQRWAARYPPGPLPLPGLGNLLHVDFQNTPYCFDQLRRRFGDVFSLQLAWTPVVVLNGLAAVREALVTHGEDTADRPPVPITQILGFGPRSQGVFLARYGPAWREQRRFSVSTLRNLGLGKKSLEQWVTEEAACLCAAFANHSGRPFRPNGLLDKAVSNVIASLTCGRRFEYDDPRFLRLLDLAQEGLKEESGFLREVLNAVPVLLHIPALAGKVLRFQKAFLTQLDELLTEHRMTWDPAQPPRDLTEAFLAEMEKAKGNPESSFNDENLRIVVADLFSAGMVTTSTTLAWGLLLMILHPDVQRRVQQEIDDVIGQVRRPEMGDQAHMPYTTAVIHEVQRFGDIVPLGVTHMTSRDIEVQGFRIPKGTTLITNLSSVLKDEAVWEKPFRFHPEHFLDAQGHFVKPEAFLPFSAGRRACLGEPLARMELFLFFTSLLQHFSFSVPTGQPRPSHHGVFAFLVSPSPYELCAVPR
T5 sequence (P49327 whole entry): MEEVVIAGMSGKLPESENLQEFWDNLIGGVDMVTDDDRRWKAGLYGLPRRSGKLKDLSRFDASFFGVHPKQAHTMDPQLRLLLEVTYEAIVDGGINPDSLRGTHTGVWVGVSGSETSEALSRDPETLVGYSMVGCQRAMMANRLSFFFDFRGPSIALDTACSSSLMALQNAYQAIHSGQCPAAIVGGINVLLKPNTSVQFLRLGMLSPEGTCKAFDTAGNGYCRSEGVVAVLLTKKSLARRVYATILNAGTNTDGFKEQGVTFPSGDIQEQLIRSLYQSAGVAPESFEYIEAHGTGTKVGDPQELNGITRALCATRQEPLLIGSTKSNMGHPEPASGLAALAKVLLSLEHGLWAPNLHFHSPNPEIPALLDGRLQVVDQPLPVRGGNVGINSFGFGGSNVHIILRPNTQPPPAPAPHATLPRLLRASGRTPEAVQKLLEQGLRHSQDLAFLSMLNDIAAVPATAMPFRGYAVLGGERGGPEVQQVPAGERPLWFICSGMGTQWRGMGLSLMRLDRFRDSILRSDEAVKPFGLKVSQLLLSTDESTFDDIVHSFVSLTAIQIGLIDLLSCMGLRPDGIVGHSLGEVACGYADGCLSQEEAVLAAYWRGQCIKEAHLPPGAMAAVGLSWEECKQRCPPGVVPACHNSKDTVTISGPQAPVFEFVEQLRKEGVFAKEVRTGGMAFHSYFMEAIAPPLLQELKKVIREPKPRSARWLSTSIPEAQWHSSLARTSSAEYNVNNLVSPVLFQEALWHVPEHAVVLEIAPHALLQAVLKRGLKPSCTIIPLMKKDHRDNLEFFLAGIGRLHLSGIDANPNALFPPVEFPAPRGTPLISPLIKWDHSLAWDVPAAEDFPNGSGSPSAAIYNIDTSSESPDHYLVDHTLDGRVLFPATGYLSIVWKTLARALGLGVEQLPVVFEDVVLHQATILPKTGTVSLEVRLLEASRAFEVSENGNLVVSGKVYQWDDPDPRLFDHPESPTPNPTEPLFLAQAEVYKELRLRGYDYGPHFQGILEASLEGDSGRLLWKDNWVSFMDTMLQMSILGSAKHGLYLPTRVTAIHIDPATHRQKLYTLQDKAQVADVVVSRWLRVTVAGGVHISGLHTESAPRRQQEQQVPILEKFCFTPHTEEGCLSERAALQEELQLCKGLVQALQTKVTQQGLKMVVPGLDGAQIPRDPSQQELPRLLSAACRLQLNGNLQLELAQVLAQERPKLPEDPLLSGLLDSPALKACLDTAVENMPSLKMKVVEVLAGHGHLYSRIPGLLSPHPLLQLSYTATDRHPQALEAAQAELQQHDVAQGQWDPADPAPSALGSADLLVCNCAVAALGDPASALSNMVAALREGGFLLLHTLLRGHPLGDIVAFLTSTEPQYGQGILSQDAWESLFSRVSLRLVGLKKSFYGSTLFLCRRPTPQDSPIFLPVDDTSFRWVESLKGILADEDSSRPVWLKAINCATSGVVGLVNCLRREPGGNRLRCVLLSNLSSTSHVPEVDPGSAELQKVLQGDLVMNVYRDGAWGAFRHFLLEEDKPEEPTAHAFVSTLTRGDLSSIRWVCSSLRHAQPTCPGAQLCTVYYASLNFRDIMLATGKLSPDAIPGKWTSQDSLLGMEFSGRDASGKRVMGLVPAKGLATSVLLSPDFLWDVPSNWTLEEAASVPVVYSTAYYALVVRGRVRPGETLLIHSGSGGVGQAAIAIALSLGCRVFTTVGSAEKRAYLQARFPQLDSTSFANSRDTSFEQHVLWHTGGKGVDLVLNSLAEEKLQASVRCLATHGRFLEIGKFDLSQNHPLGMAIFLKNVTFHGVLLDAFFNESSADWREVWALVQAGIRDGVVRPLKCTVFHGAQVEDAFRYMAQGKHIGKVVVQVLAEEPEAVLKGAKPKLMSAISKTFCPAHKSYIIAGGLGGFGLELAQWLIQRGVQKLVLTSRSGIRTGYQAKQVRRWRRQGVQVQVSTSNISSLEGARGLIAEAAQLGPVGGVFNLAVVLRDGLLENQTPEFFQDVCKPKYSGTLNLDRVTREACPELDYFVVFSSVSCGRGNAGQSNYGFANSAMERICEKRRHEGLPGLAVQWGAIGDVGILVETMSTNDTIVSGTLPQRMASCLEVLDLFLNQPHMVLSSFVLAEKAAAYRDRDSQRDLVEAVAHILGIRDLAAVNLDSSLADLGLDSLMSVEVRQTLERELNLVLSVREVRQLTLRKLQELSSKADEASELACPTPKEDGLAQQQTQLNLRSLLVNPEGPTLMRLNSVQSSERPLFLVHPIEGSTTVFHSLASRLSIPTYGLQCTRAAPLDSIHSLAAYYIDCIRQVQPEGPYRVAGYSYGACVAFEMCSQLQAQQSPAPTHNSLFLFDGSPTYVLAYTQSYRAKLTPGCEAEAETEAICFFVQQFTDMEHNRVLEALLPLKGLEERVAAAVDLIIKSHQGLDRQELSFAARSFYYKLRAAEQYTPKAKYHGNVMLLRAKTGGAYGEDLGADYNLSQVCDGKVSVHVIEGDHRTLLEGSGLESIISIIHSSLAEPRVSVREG
Sequence of Cytochrome P450 2C9 (P11712 whole entry): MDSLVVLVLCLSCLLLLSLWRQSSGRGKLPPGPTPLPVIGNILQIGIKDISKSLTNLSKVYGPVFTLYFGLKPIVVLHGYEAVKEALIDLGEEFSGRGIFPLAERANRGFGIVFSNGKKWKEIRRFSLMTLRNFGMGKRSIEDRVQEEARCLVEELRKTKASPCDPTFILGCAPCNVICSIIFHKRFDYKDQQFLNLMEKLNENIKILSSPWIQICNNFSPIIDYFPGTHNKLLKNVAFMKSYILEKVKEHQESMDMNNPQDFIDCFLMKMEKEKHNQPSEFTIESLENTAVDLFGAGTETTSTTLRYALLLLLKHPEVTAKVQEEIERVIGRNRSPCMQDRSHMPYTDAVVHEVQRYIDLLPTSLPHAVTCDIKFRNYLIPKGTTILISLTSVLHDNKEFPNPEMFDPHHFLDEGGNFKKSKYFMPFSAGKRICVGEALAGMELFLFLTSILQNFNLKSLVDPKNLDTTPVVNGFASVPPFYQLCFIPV
Sequence of Cytochrome P450 3A4 (P08684 whole entry): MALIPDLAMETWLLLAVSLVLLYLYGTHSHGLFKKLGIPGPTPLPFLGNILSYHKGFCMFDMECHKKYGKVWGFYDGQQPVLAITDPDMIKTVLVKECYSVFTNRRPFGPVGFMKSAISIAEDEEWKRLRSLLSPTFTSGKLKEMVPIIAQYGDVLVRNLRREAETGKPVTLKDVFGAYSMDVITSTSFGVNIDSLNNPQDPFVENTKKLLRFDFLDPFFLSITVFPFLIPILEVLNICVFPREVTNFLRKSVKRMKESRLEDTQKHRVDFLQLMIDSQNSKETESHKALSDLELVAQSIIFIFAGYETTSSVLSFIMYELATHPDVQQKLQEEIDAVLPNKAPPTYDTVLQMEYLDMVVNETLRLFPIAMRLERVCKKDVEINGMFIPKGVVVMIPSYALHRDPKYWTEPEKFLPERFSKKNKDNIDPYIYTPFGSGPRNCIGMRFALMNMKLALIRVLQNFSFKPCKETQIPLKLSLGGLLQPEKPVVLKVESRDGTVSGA

Turning to `Oc1nc(S)nc(SCc2c(Cl)c(Cl)c(Cl)c(Cl)c2Cl)n1`, at Cytochrome P450 2D6, the AC50 was 3.98 µM (inconclusive).

`Cc1cc(C)cc(NS(=O)(=O)c2ccc3[nH]cc(C(=O)NCc4ccco4)c(=O)c3c2)c1`: the EC50 in assay [1] was 2.68 µM (active); in [2] it was 1.78 µM (active). Further, in [3], the AC50 is 0.428 µM (active).

Turning to `Cc1ccc(O)c(NC(=O)c2cc(-c3ccco3)on2)c1`, the IC50 at Caspase-3 is 21.3 µM (active); in [4] it was > 80 µM (inactive); in assay [5] it was 8.57 µM (active); in assay [6], > 100 µM (inactive); in assay [7] it was > 100 µM (inactive).

For `CCOC(=O)NNc1ccc2nonc2c1[N+](=O)[O-]`, the IC50 is 42.2 µM (active) in assay [8]; 8.38 µM (active) at Caspase-3; 10.8 µM (active) in assay [5]; 4.96 µM (active) in [6]; 4.85 µM (active) in assay [7].

For the compound `Cc1cc2cc(CN(Cc3cccs3)S(=O)(=O)c3ccc4c(c3)OCCO4)c(O)nc2cc1C`, the EC50 in [1] was 33.8 µM (active); in assay [2], 30.2 µM (active).

`COC(=O)Cn1c(=O)c(C(=O)CCl)c(N)n(Cc2ccccc2)c1=O`: the EC50 in the assay on BJ [9] is 0.797 µM (active); with BJ [10] it was 7 µM (active); in the assay with BJ [11], 16.3 µM (inconclusive); in assay [12] it was 4.86 µM (inconclusive).

`Cc1cc(C)n(CCc2nc(-c3ccc(-c4ccccc4)cc3)cs2)n1`: the IC50 at Caspase-3 is 23.9 µM (active); in assay [5] it was 4.98 µM (active); in assay [6] it was 20.5 µM (active); in assay [7], 59.3 µM (active).

Consider `CN(C)S(=O)(=O)c1ccc(Nc2nc(C3CC3)nc3c2nnn3Cc2ccccc2Cl)cc1`, for which the IC50 in [4] is > 80 µM (inactive). In addition, in the assay with INS1, the AC50 is 4.71 µM (active).

Regarding `CC(C)OCCCN1C(=O)c2[nH]nc(-c3ccccc3O)c2C1c1cccc(Cl)c1` (stereo not given), the EC50 is 25.2 µM (active) in [1] and 27.6 µM (active) in [2].

Take `N#C/C(=C/c1cn(-c2ccccc2)nc1-c1cccc(OCc2ccc(F)cc2)c1)C(=O)NCCCn1ccnc1`: the EC50 in assay [13] is 1.46 µM (active); in [1], 23.4 µM (active); in assay [14] it was > 30 µM (not active); in assay [2], 21.7 µM (active). Besides, the AC50 in assay [3] is 2.5 µM (active). Also, the 50% inhibitory concentration (IC50) at Nonstructural protein 1 was 81.1 µM (active).

For the compound `CC(C)C(=O)Nc1sc2c(c1C(N)=O)CCN(Cc1ccccc1)C2`, the EC50 with BJ [9] is > 150 µM (not active); in the assay with BJ [10], > 150 µM (not active); in the assay with BJ [11], > 150 µM (not active); in assay [12], 47.8 µM (active).

`CCOC(=O)C(C(=O)OCC)C(Nc1cccc(Br)c1)c1ccccc1` (stereo not given): the EC50 in [1] is 115 µM (active); in assay [2] it was 147 µM (active).

Turning to `Cc1cnc(CNc2ncnc3ccc(-c4ccc(N(C)C)cc4)cc23)cn1`, the AC50 on Cytochrome P450 2D6 is 25.1 µM (inconclusive).

`N#Cc1cccc(-c2cc(NCc3cccs3)ncn2)c1`: the AC50 at Cytochrome P450 2D6 was 20 µM (inconclusive); at Cytochrome P450 3A4, 1.58 µM (inconclusive).

As for `O=C(c1csnn1)N1CCC2(CCCN(c3ccccc3)C2)CC1`, the AC50 at Cytochrome P450 2D6 is 20 µM (inconclusive).

In the case of `COc1ccc2c(c1)C(=O)N1[C@H]3c4cc(Br)ccc4OC[C@@H]3[C@H](c3ccccc3)[C@]1(C)C(=O)N2`, the IC50 in [4] is > 80 µM (inactive); on Fatty acid synthase [15], 17.1 µM (active); at Fatty acid synthase [16], 18 µM (active).

In the case of `CN(C)c1ccc(NC(=O)CSc2nc(N)c(C(=O)Nc3ccc(N(C)C)cc3)s2)cc1`, the AC50 on Cytochrome P450 2D6 was 17.8 µM (inconclusive).

For the compound `COc1ccc(C(=O)c2cnc3ccccc3c2-c2ccccc2)cc1`, the figures for the AC50 at Cytochrome P450 2D6 and on Cytochrome P450 2C9 were 31.6 µM (inconclusive) and 7.08 µM (inconclusive), respectively.
